From ChEMBL document CHEMBL1781918, “Quinazolin-4-piperidin-4-methyl sulfamide PC-1 inhibitors: alleviating hERG interactions through structure based design” (Bioorg Med Chem Lett, 2009) come the findings set out here.

In series [1] the target is T1, Ectonucleotide pyrophosphatase/phosphodiesterase family member 1 (Homo sapiens) (UniProt P22413).
T1 sequence (whole entry): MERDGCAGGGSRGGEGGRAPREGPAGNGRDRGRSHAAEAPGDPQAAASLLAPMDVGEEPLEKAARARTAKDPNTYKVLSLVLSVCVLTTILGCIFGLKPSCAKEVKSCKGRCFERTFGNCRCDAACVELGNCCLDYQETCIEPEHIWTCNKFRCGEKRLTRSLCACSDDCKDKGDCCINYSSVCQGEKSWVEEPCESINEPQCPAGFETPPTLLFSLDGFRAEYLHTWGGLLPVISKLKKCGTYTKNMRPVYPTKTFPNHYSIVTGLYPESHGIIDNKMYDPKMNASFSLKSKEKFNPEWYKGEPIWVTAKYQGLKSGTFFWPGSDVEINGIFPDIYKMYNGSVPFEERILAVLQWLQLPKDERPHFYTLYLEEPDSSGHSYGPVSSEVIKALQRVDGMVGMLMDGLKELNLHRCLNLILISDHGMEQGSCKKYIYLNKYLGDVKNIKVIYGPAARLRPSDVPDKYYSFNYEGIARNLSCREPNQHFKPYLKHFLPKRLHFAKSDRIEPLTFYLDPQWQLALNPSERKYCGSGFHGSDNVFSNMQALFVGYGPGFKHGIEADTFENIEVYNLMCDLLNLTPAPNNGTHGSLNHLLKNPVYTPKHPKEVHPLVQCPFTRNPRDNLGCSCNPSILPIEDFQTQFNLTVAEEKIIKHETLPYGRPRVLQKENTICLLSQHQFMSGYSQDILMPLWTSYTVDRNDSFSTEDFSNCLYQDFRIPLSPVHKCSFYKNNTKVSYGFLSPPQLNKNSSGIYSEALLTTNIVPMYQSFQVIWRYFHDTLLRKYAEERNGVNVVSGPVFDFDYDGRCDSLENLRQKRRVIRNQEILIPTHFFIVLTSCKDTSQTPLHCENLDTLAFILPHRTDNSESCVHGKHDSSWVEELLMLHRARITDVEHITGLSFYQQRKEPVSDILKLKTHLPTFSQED
Description: Inhibition of PC1 by in vitro Kinase-Glo assay.

Series [2] deals with Voltage-gated inwardly rectifying potassium channel KCNH2 (Homo sapiens, UniProt Q12809). Description: Displacement of [3H]-dofetilid from human ERG expressed in HEK293 cells. The class given is cell-based. On the technique in general: In a radioligand displacement assay an active substance lowers the binding of a labelled ligand.
Series [3] in a line: Selectivity for PC1 to human ERG channel.

Structures are written as SMILES.

Sequence of Voltage-gated inwardly rectifying potassium channel KCNH2 (Q12809 whole entry): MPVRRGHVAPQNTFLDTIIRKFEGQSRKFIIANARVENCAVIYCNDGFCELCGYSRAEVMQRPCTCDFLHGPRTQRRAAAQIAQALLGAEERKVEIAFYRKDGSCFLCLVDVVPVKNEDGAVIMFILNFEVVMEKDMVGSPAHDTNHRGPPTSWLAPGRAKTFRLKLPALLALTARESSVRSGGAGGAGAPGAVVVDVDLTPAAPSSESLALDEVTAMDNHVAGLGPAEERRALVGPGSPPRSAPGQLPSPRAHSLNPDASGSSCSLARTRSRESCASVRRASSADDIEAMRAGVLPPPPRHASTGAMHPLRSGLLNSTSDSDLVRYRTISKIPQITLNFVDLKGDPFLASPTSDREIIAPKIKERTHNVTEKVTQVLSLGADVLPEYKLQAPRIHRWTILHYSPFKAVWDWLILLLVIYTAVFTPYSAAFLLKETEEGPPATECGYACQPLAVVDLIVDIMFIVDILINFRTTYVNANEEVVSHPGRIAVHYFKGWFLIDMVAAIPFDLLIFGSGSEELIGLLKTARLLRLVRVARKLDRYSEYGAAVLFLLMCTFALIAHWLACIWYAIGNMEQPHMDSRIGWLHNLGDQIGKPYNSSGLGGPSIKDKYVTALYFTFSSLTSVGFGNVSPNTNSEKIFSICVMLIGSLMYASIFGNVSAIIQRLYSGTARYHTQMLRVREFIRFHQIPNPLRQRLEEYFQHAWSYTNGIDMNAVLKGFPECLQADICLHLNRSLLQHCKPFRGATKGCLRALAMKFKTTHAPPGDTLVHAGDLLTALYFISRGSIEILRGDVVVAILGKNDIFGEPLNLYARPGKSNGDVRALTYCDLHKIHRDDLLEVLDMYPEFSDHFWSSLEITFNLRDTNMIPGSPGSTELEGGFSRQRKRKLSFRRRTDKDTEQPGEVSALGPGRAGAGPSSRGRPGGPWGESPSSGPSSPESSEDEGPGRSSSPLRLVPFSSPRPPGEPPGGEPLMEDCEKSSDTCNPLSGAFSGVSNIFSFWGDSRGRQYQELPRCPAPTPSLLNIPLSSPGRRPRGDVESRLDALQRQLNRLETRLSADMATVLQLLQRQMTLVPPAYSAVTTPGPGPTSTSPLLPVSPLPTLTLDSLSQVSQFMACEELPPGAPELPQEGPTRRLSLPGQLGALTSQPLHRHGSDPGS

With `NS(=O)(=O)NCCC1CCN(c2ncnc3cc(Cl)ccc23)CC1`, the INH was over 10 µM in series [1] and 3.4 µM in series [2].
`COc1cc2ncnc(N3CCC(NS(N)(=O)=O)CC3)c2cc1OC`: the INH in series [1] and in series [2] was over 10 µM throughout.
For the molecule `Cc1nccn1-c1cc(N2CCC(CCNS(N)(=O)=O)CC2)ncn1`, the INH in series [1] was 0.6 µM; in series [2], over 10 µM. For the same molecule, the Ratio in series [3] is over 16.
`COc1ccc2c(N3CCC(CNS(N)(=O)=O)CC3)ncnc2c1`: the INH in series [1] was 0.166 µM; in series [2] it was over 10 µM. For the same molecule, the Ratio in series [3] was over 60.
In turn, `NS(=O)(=O)NCCC1CCN(c2ncnc3ccc(Cl)cc23)CC1` yielded an INH in series [1] of 5.98 µM.
In the case of `Cc1nccn1-c1cc(N2CCC(CNS(N)(=O)=O)CC2)ncn1`, the INH in series [1] and in series [2] was over 10 µM each time.
Consider `COc1cc2ncnc(N3CCC(CCNS(N)(=O)=O)CC3)c2cc1OC`, for which the INH in series [1] amounted to 0.0362 µM; in series [2], 0.601 µM. Further, the Ratio in series [3] turned out to be 17.
Regarding `COc1cc2nc(/C=C/c3cccnc3)nc(N3CCC(CCNS(N)(=O)=O)CC3)c2cc1OC`, the INH in series [1] worked out at 0.0353 µM; in series [2] it was 0.276 µM. The Ratio in series [3] was 8.
Turning to `COc1cc2ncnc(N3CCC(CNS(N)(=O)=O)CC3)c2cc1OC`, the INH is 0.061 µM in series [1] and over 10 µM in series [2]. Besides, the Ratio in series [3] is over 160.
`Cc1nccn1-c1nccc(N2CCC(CCNS(N)(=O)=O)CC2)n1`: the INH in series [1] amounted to 2.45 µM; in series [2], 6.867 µM.
As for `COc1cc2nc(/C=C/c3cccnc3)nc(N3CCC(CNS(N)(=O)=O)CC3)c2cc1OC`, the INH in series [1] was found to be 0.063 µM; in series [2] it was 3.296 µM. Besides, the Ratio in series [3] came to 52.
In series [1], `CCc1nc(N2CCC(CCNS(N)(=O)=O)CC2)c2cc(OC)c(OC)cc2n1` had an INH of 0.214 µM.
Take `COc1ccc2c(N3CCC(CCNS(N)(=O)=O)CC3)ncnc2c1`: the INH amounted to 0.187 µM in series [1] and 0.1202 µM in series [2]. The Ratio in series [3] was 1.
